According to US10968225B2, “Compounds and compositions for the treatment of cystic fibrosis” (Fondazione Istituto Italiano Di Tecnologia, priority 2017, dated 2021):

Tests used:
Format in all cases: cell-based
mutant CFTR = target: T1, mutant CFTR (Homo sapiens, UniProt P13569, DEL508-508); assay: Fluorescence (HS-YFP) assay for CFTR activity, corrector assay; conditions: CFBE41o- and FRT cells with stable expression of mutant CFTR, read-out: activity (EC50)
T1 construct: expressed in transfected cells
T1 sequence (P13569 with tags, fused parts or gaps DEL508-508): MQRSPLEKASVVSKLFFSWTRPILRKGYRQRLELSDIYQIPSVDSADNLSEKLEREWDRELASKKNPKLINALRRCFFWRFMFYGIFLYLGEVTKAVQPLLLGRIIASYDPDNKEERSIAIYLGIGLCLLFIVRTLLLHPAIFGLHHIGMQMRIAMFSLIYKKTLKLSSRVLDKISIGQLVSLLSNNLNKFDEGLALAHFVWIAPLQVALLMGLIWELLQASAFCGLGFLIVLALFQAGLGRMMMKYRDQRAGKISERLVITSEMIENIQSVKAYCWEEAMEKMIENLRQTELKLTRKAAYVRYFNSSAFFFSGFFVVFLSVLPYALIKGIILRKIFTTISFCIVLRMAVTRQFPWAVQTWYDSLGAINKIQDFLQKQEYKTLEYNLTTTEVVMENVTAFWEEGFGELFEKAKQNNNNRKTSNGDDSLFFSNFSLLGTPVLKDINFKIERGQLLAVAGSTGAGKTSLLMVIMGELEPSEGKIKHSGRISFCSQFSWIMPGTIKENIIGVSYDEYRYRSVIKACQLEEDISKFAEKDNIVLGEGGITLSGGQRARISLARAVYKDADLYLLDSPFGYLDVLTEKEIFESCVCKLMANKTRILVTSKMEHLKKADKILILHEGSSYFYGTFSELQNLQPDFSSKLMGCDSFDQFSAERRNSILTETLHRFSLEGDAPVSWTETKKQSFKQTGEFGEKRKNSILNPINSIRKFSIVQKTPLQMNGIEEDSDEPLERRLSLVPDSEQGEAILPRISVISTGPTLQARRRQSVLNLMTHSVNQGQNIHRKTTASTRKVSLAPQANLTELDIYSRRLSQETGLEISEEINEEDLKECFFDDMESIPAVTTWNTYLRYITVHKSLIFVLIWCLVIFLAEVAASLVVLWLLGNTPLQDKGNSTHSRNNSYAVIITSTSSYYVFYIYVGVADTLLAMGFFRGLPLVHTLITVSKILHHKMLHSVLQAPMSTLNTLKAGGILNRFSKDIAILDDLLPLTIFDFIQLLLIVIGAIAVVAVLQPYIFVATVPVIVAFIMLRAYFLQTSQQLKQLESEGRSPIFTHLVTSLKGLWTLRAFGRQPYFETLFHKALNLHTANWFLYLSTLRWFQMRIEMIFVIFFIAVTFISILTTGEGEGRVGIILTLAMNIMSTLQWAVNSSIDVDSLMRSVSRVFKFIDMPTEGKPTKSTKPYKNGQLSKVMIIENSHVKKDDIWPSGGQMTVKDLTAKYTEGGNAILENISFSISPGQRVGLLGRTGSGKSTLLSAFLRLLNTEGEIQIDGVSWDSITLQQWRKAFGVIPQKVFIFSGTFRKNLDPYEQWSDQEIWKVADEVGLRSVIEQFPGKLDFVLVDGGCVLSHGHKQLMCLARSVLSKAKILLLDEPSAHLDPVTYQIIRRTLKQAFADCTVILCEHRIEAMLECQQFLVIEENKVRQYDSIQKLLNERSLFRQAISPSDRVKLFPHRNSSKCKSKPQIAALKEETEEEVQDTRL

F508del-CFTR [1] = target: T2, F508del-CFTR (Homo sapiens, UniProt P13569, DEL508-508); assay: Transepithelial electrical conductance (TEEC) in FRT cells; parameters: expressed in transfected cells; host or cells: FRT cells; conditions: compounds tested at 5.0 µM; FRT cells expressing F508del-CFTR; 24 hrs incubation; forskolin and genistein stimulation minus PPQ-102 block
T2 sequence (P13569 with tags, fused parts or gaps DEL508-508): as above
Procedure: Transepithelial Electrical Conductance (TEEC)
FRT cells expressing F508del-CFTR were plated on HTS Transwell-24 well permeable supports (Code 3379, Corning Life Sciences) at a density of 200,000 cells/well. After six days, cells were incubated for 24 hrs with test correctors, vehicle, or VX-809. Compounds were dissolved in both basolateral (800 μL) and apical (300 μL) culture medium. After treatment, the culture medium was removed and replaced on both sides with a saline solution containing (in mM): 130 NaCl, 2.7 KCl, 1.5 KH2PO4, 1 CaCl2, 0.5 MgCl2, 10 glucose, 10 Na-Hepes (pH 7.4). The basolateral and apical side received 800 μL and 100 μL, respectively. The 24-well tray with cells was placed on a block heater (SBH 130D, Stuart) to keep the temperature at 37° C. during the entire experiment. After 10 min, the basal transepithelial electrical resistance (TEER) across each layer of FRT cells was measured with a STX100C electrode pair connected to an EVOM2 voltohmeter (World Precision Instruments). To stimulate F508del-CFTR, each well received (apical side) 50 μL of saline solution containing 60 μM forskolin and 150 μM genistein (final concentrations: 20 μM forskolin, 50 μM genistein). Forskolin was also pipetted in the basolateral medium to obtain the 20 μM concentration. After 10 min TEER was measured again in each well. To block F508del-CFTR function, the inhibitor PPQ-102 was used at the final concentration of 30 μM. To achieve the desired concentration, 75 μL of the apical solution in each well was replaced with an equal volume of saline solution containing 20 μM forskolin, 50 μM genistein, and 60 μM PPQ-102. After further 10 min, the transepithelial electrical resistance was measured. All values of TEER were converted to transepithelial electrical conductance (TEEC) using the formula TEEC=1/TEER. The parameter to indicate activity of F508del-CFTR in each well (ΔTEEC) was calculated from the difference in TEEC measured after maximal stimulation of F508del-CFTR with forskolin and genistein and after block with PPQ-102.
Corrector activities obtained on selected compounds tested at 5.0 µM (expressed as ΔTEEC values) are illustrated in table 2, wherein +: ΔTEEC<2000 µS; ++: 2000 µS<ΔTEEC<3000[…]S; +++: ΔTEEC>3000 µS.

F508del-CFTR [2] = target: T2, F508del-CFTR; assay: Short-circuit current recordings on human bronchial epithelial cells; parameters: Human bronchial epithelial (HBE) cells obtained from CF patients (F508del/F508del genotype); endogenous in cells; host or cells: primary human bronchial epithelial cells from CF patients, F508del/F508del; conditions: compounds tested at 1.0 µM; HBE cells from CF patients (F508del/F508del); 24 hrs treatment; CPT-cAMP plus VX-770 minus CFTRinh-172
Procedure: Short-Circuit Current Recordings on Human Bronchial Epithelial Cells
Human bronchial epithelial (HBE) cells obtained from CF patients (F508del/F508del genotype) were plated on Snapwell inserts (Code 3801, Corning Life Sciences) at a density of 500,000 cells per insert. Cells were cultured for two weeks in a differentiating medium whose compositions has been previously described (Scudieri et al., J Physiol 590:6141-6155, 2012). For the first week, the medium was kept on both apical and basolateral sides of inserts (submerged condition). For the second week, the apical medium was removed (air-liquid condition, ALC). To test the activity of correctors, cells were treated for 24 hrs with compounds dissolved in the basolateral medium. After treatment, Snapwell inserts carrying differentiated bronchial epithelia were mounted in a vertical chamber resembling an Ussing system with internal fluid circulation. Both apical and basolateral hemichambers were filled with 5 mL of a Krebs bicarbonate solution containing (in mM): 126 NaCl, 0.38 KH2PO4, 2.13 K2HPO4, 1 MgSO4, 1 CaCl2, 24 NaHCO3, and 10 glucose. Both sides were continuously bubbled with a gas mixture containing 5% CO2-95% air and the temperature of the solution was kept at 37° C. The transepithelial voltage was short-circuited with a voltage-clamp (DVC-1000, World Precision Instruments) connected to the apical and basolateral chambers via Ag/AgCl electrodes and agar bridges (1 M KCl in 1% agar). The offset between voltage electrodes and the fluid resistance were canceled before experiments. The short-circuit current was recorded with a PowerLab 4/25 (ADInstruments) analogical to digital converter connected to a Macintosh computer. […] The difference between the current measured with CPT-cAMP plus potentiator and the current remaining after CFTRinh-172 treatment ([…]ICFTR) was taken as the parameter reflecting F508del-CFTR expression in the apical membrane.
Activities of selected compounds on HBE cells tested at 1.0 µM (expressed as […]ICFTR) are illustrated in table 3 wherein +: […]ICFTR<2.0 µA; ++: 2 μA<[…]ICFTR<3.0 μA; +++: […]ICFTR>3.0 µA.

CN(C(=O)c1cccc(-n2nc(C(F)(F)F)c3c2CC2CCC3N2C(=O)OC(C)(C)C)c1)c1ccc2c(c1)OCO2 (racemic) [Compound 018, tert-Butyl 1-(3-(benzo[d][1,3]dioxol-5-yl(methyl)carbamoyl)phenyl)-3-(trifluoromethyl)-1,4,5,6,7,8-hexahydro-4,7-epiminocyclohepta[c]pyrazole-9-carboxylate]
EC50 (mutant CFTR): < 1000 nM | Corrector activity (expressed as ΔTEEC values) (F508del-CFTR [1]): +++ (ΔTEEC>3000 µS) | activity on HBE cells (expressed as […]ICFTR) (F508del-CFTR [2]): +++ ([…]ICFTR>3.0 µA)

CN1CCc2c(c(C(F)(F)F)nn2-c2cccc(C(=O)N(C)c3ccc4c(c3)OCO4)c2)C1 [Compound 003, N-(1,3-Benzodioxol-5-yl)-N-methyl-3-[5-methyl-3-(trifluoromethyl)-6,7-dihydro-4H-pyrazolo[4,3-c]pyridin-1-yl]benzamide]
EC50 (mutant CFTR): < 1000 nM | Corrector activity (expressed as ΔTEEC values) (F508del-CFTR [1]): ++ (2000 µS<ΔTEEC<3000[…]S) | activity on HBE cells (expressed as […]ICFTR) (F508del-CFTR [2]): ++ (2 μA<[…]ICFTR<3.0 μA)

CN(C(=O)c1cccc(-n2nc(C(F)(F)F)c3c2CCN(C(=O)Nc2ccccc2)C3)c1)c1ccc2c(c1)OCO2 [Compound 010, 1-[3-[1,3-Benzodioxol-5-yl(methyl)carbamoyl]phenyl]-N-phenyl-3-(trifluoromethyl)-6,7-dihydro-4H-pyrazolo[4,3-c] pyridine-5-carboxamide]
EC50 (mutant CFTR): < 1000 nM | Corrector activity (expressed as ΔTEEC values) (F508del-CFTR [1]): ++ (2000 µS<ΔTEEC<3000[…]S) | activity on HBE cells (expressed as […]ICFTR) (F508del-CFTR [2]): ++ (2 μA<[…]ICFTR<3.0 μA)

CN(C(=O)c1cccc(-n2nc(C(F)(F)F)c3c2CCN(C(=O)C(C)(C)C)C3)c1)c1ccc2c(c1)OCO2 [Compound 011, N-(1,3-Benzodioxol-5-yl)-3-[5-(2,2-dimethylpropanoyl)-3-(trifluoromethyl)-6,7-dihydro-4H-pyrazolo[4,3-c]pyridin-1-yl]-N-methyl-benzamide]
EC50 (mutant CFTR): < 1000 nM | Corrector activity (expressed as ΔTEEC values) (F508del-CFTR [1]): ++ (2000 µS<ΔTEEC<3000[…]S) | activity on HBE cells (expressed as […]ICFTR) (F508del-CFTR [2]): ++ (2 μA<[…]ICFTR<3.0 μA)

CN(C(=O)c1cccc(-n2nc(C(F)(F)F)c3c2CCN(Cc2ccccc2)C3)c1)c1ccc2c(c1)OCO2 [Compound 012, N-(1,3-Benzodioxol-5-yl)-3-[5-benzyl-3-(trifluoromethyl)-6,7-dihydro-4H-pyrazolo[4,3-c]pyridin-1-yl]-N-methyl-benzamide]
EC50 (mutant CFTR): < 1000 nM | Corrector activity (expressed as ΔTEEC values) (F508del-CFTR [1]): ++ (2000 µS<ΔTEEC<3000[…]S) | activity on HBE cells (expressed as […]ICFTR) (F508del-CFTR [2]): + ([…]ICFTR<2.0 µA)

COC(=O)c1cccc(CN2CCc3c(c(C(F)(F)F)nn3-c3cccc(C(=O)N(C)c4ccc5c(c4)OCO5)c3)C2)c1 [Compound 020, Methyl 3-[[1-[3-[1,3-benzodioxol-5-yl(methyl)carbamoyl]phenyl]-3-(trifluoromethyl)-6,7-dihydro-4H-pyrazolo[4,3-c]pyridin-5-yl]methyl]benzoate]
EC50 (mutant CFTR): < 1000 nM | Corrector activity (expressed as ΔTEEC values) (F508del-CFTR [1]): +++ (ΔTEEC>3000 µS) | activity on HBE cells (expressed as […]ICFTR) (F508del-CFTR [2]): ++ (2 μA<[…]ICFTR<3.0 μA)

CN(C(=O)c1cccc(-n2nc(C(F)(F)F)c3c2CCN(C2CCC2)C3)c1)c1ccc2c(c1)OCO2 [Compound 032, N-(1,3-Benzodioxol-5-yl)-3-[5-cyclobutyl-3-(trifluoromethyl)-6,7-dihydro-4H-pyrazolo[4,3-c]pyridin-1-yl]-N-methyl-benzamide]
EC50 (mutant CFTR): < 1000 nM | Corrector activity (expressed as ΔTEEC values) (F508del-CFTR [1]): ++ (2000 µS<ΔTEEC<3000[…]S) | activity on HBE cells (expressed as […]ICFTR) (F508del-CFTR [2]): ++ (2 μA<[…]ICFTR<3.0 μA)
